Measurements taken from PMC7907166, “AOA-2 Derivatives as Outer Membrane Protein A Inhibitors for Treatment of Gram-Negative Bacilli Infections” (Frontiers in Microbiology, 2021).
Positions of bridges follow the written chain, without caps; N, C: chain ends. Non-standard residues stand in square brackets, D forms with d. Residues, ends and D or L forms follow the SMILES beside them. *: point of attachment. X1 = CC[C@H](C)CCCCC(=O)*; Dab = NCC[C@H](N)C(=O)O

Assays:
Type in all cases: cell-based
A. baumannii ATCC 17978 [1] = details: microdilution, two independent experiments; for MIC of colistin in presence of peptide: peptide added at 125 μg/mL
Experimental: The minimal inhibitory concentration (MIC) of colistin in absence and presence of RW01 or RW06 at […] for A. baumannii ATCC 17978 strain was determined by microdilution assay in two independent experiments as previously reported ([Parra-Millán et al., 2018]).

[2] = tested on: OmpA-deficient mutant A. baumannii, JPAB01; details: for MIC of colistin in presence of peptide: peptide added at 125 μg/mL, did not change the activity
A. baumannii ATCC 17978 [3] = assay: Bacterial adhesion assay to A549 cells; details: for adherence of A. baumannii to A549 cells reduced to: bacteria pre-incubated with peptide 250 μg/mL 30 min, MOI 500, 2 h, CFU count; for adherence of ATCC 17978 to A549 cells compared with AOA-2: peptide 125, 62.5 and 31.25 μg/mL, except RW06 at 31.25 μg/mL, Figure 2B
Experimental: (§1) The human pneumocyte cell line type II A549, derived from a human lung carcinoma, obtained from the American Type Culture Collection was used and cultured in DMEM medium (Invitrogen, Spain) supplemented with 10% of heat-inactivated fetal bovine serum, 50 μg/mL vancomycin (Laboratorios Normon, Spain), 20 μg/mL gentamicin (Normon Laboratories, Spain), 0.25 μg/mL amphotericin B mL (Invitrogen, Spain) and 1% HEPES (Invitrogen, Spain) in a humidified incubator, 5% CO2 at 37°C. Routine passage of A549 cells was performed every 3–4 days. Cells were seeded 24 h in 96-well plates (Sarstedt, Germany) for the cell viability assay, and in 24-well plates (Sarstedt, Germany) for the bacterial adhesion assays.
(§2) A. baumannii ATCC 17978, P. aeruginosa PAO1 and E. coli ATCC 25922 strains were incubated with AOA-2 (31.25, 62.5, 125, and 250 μg/mL, 30 min), AOA-2 derivatives RW01, RW02, RW03, RW06, RW07, RW08, RW09, RW10, RW11, and RW13 (250 μg/mL, 30 min), or AOA-2 derivatives RW01, RW02, RW03, RW06 (31.25, 62.5, and 125 μg/mL, 30 min), and added at 10^8 CFU/mL, corresponding to a multiplicity of infection (MOI) of 500, to the A549 cells for 2 h at 5% CO2 and 37°C. Subsequently, infected A549 cells were washed five times with prewarmed PBS 1X and lysed with 0.5% Triton X-100. Serial dilutions of these lysates were made and plated on blood agar plates (Blood-Agar Columbia, Becton Dickinson Microbiology Systems, United States) and incubated at 37°C for 24 h for colony counting and then determination of CFU/mL that attached to A549 cells.

P. aeruginosa PAO1 [4] = assay: Bacterial adhesion assay to A549 cells; details: for adherence of P. aeruginosa to A549 cells reduced to: bacteria pre-incubated with peptide 250 μg/mL 30 min, MOI 500, 2 h, CFU count; for adherence of PAO1 strain to A549 cells compared with AOA-2: peptide 125, 62.5 and 31.25 μg/mL, some statistical differences, Figure 2B; for adherence of PAO1 strain to A549 cells (in words): peptide 250 μg/mL, 30 min, Figure 2A
Experimental: as §1, §2

E. coli ATCC 25922 [5] = assay: Bacterial adhesion assay to A549 cells; details: for adherence of E. coli to A549 cells reduced to: bacteria pre-incubated with peptide 250 μg/mL 30 min, MOI 500, 2 h, CFU count; for adherence of ATCC 25922 to host cells compared with AOA-2: peptide 125, 62.5 and 31.25 μg/mL, Figure 2B
Experimental: as §1, §2

A. baumannii ATCC 17978 [6] = assay: Bacterial cytotoxicity: viability of infected A549 cells (MTT); details: for cell viability of infected A549 cells with respect to untreated strain: ATCC 17978 pretreated with peptide 125 μg/mL only, 24 h infection
Experimental: (§3) A549 cells were incubated with the peptide derivatives RW01, RW02, RW03, RW06, RW07, RW08, RW09, RW10, RW11, and RW13 (0, 3.5, 7, 15, 35, 62, 125, 250, and 500 μg/mL) for 24 h with 5% CO2 at 37°C. Prior the evaluation of the peptides cytotoxicity, A549 cells were washed three times with prewarmed PBS 1X. Subsequently, quantitative cytotoxicity was evaluated by measuring the mitochondrial reduction activity using the 3-(4,5-dimethylthiazol-2-yl)-2,5-diphenyltetrazolium bromide (MTT) assay as described previously ([Smani et al., 2013]). The percentage of […] was calculated from the absorbance at 570 nm as follow: [(Absorbance 570 nm of treated cells/Absorbance 570 nm mean of untreated cells) × 100].
(§4) A549 cells were infected with 10^8 CFU/mL, corresponding to a MOI of 500, of A. baumannii ATCC 17978, P. aeruginosa PAO1 and E. coli ATCC 25922 strains pretreated with AOA-2 or AOA-2 derivatives RW01, RW02, RW03, and RW06 (31.25, 62.5, and 125 μg/mL, 30 min) for 24 h with 5% CO2 at 37°C. Prior to the evaluation of bacterial cytotoxicity, viable bacteria are first removed from A549 cell culture by washing these A549 cells five times with PBS 1X. Subsequently, cell viability was evaluated as described above.

P. aeruginosa PAO1 [7] = assay: as above; details: 24 h infection
Experimental: as §3, §4

E. coli ATCC 25922 [8] = assay: as above; details: for cell viability of infected A549 cells with respect to untreated strain: ATCC 25922 pretreated with peptide 125, 62.5 and 31.25 μg/mL, 24 h infection
Experimental: as §3, §4

Compound | MIC of colistin in presence of peptide (A. baumannii ATCC 17978 [1]) [µg/mL] | MIC of colistin in presence of peptide [2] [µg/mL] | adherence of A. baumannii to A549 cells reduced to (A. baumannii ATCC 17978 [3]) [%] | adherence of ATCC 17978 to A549 cells compared with AOA-2 (A. baumannii ATCC 17978 [3]) | adherence of P. aeruginosa to A549 cells reduced to (P. aeruginosa PAO1 [4]) [%] | adherence of PAO1 strain to A549 cells compared with AOA-2 (P. aeruginosa PAO1 [4]) | adherence of E. coli to A549 cells reduced to (E. coli ATCC 25922 [5]) [%] | adherence of ATCC 25922 to host cells compared with AOA-2 (E. coli ATCC 25922 [5]) | cell viability of infected A549 cells with respect to untreated strain (A. baumannii ATCC 17978 [6]) | cell viability of infected A549 cells with respect to untreated strain (E. coli ATCC 25922 [8]) | adherence of PAO1 strain to A549 cells (in words) (P. aeruginosa PAO1 [4]) | also measured
CC[C@H](C)CCCCC(=O)N[C@@H](CCN)C(=O)N[C@H](C(=O)N[C@@H](CCN)C(=O)N[C@H]1CCNC(=O)[C@H]([C@@H](C)O)NC(=O)[C@H](CCN)NC(=O)[C@H](CCN)NC(=O)[C@H](CC(C)C)NC(=O)[C@@H](CC(C)C)NC(=O)[C@H](CCN)NC1=O)[C@@H](C)O [colistin, reference compound] (X1-[Dab]T[Dab][Dab][Dab][dL]L[Dab][Dab]T; lactam 4-C (inferred); N-terminus assumed) |  |  |  |  |  |  |  |  |  |  |  | MIC of colistin (A. baumannii ATCC 17978 [1]; colistin alone): 0.5 µg/mL; MIC of colistin ([2]; colistin alone, microdilution): 0.0625 µg/mL
&Trp-D-Pro-Dab-Trp-D-Pro-Dab& (head to tail) [RW06, AOA-2 derivative with arginine analog Dab] | 0.015 | 0.0625 | 32.83 | reduced non-statistically | 31.14 | reduced better | 44.44 | reduced with some statistical differences | increased significantly | did not increase significantly |  | protection from cell death caused by ATCC 17978 compared with AOA-2 (A. baumannii ATCC 17978 [6]; peptide 62.5 μg/mL): protected more significantly; cell viability of infected A549 cells with respect to untreated strain (P. aeruginosa PAO1 [7]; PAO1 pretreated with peptide 62.5 and 31.25 μg/mL (125 μg/mL excepted)): did not increase significantly
&Tyr-D-Pro-Ala-Tyr-D-Pro-Ala& (head to tail) [RW10] |  |  |  |  |  |  |  |  |  |  | reduced | 
&Trp-(NH2) D-Pro-Arg-Trp-D-Pro-Arg& (head to tail) [RW01, AOA-2 derivative, solubility enhanced by the addition of NH2 group] | 0.015 | 0.0625 | 26.18 | reduced non-statistically | 40.08 | reduced better | 66.66 | reduced with some statistical differences | increased significantly | increased significantly |  | cell viability of infected A549 cells with respect to untreated strain (P. aeruginosa PAO1 [7]; PAO1 pretreated with peptide 125 and 62.5 μg/mL (31.25 μg/mL excepted)): increased significantly; protection from cell death caused by ATCC 25922 compared with AOA-2 (E. coli ATCC 25922 [8]; peptide 62.5 and 31.25 μg/mL): more protective
&Trp-D-Pro-Trp-Arg-D-Pro-Arg& (head to tail) [RW09] |  |  |  |  |  |  |  |  |  |  | reduced | 
&Arg-D-Pro-Trp-Trp-D-Pro-Arg& (head to tail) [RW08] |  |  |  |  |  |  |  |  |  |  | reduced | adherence of ATCC 17978 strain to A549 cells (in words) (A. baumannii ATCC 17978 [3]; peptide 250 μg/mL, 30 min, Figure 2A): reduced
